“And” between values parts separate entries of the source, which are not always exact repeats. Equal values may be shown once.
Key:
[1] = system: monosodium urate (MSU) crystal injection-induced inflammation; assay: In vivo MSU-induced inflammation, rat air pouch study (Example 3B); set-up: species or system Sprague-Dawley rats; conditions: for Extravasation (optical absorbance at 620 nm), Av / Extravasation (optical absorbance at 620 nm), individual rats 1-10 / Exudate volume, Av / Exudate volume, individual rats 1-10 / Total white blood cell count, Av / Total white blood cell count, individual rats 1-10: 4 h after MSU
Description: (Air Pouch studies) were unpacked, placed in cages, a health inspection performed and a number assigned. […] Under anesthesia, 30 mL sterile air was injected subcutaneously on day 0 and day 3. Vehicle (water) or Lesinurad were administered orally. On the day of the experiment, rats were dosed with Vehicle, Lesinurad p.o., and/or colchicine s.c. (Sigma, Cat.#C9754, Lot.#188K1131). […] The pouch was gently massaged and the exudate was immediately removed from the air pouch. The exudate volume was measured and recorded for each animal. […] The supernatants were stored at −20° C. for cytokine analysis. […] Plasma extravasation was measured by optical absorbance at 620 nm for each exudate sample.

[2] = system: MSU-induced knee joint swelling; assay: In vivo MSU-induced inflammation, rat knee joint study (Example 3C); set-up: species or system Sprague-Dawley rats; conditions: for Average increase in knee diameter: 4 h after MSU
Description: [table] Groups 1 and 2 were orally dosed with Vehicle (sterile water) once daily for seven days from Day 1. […] Groups 6 and 7 were orally dosed with Lesinurad once daily for seven days from Day 1; Group 7 also received colchicine administered subcutaneously on Day 7. […] The injection was performed from the anterior aspect of the knee joint, which was slightly extended and flexed. […] Four hours after MSU administration, the rats were anesthetized, the diameter of right knee joints were measured with calipers; surface temperature for right knees were measured. Synovial lavage fluid from the knee was collected by injecting phosphate buffered saline with 1% BSA (0.2 mL) into the joint cavity, the fluid then collected, centrifuged and the supernatants stored at −80° C.

[3] = system: gout flares; conditions: allopurinol dosed with colchicine (0.5 mg QD); separate study; cited from earlier work
[4] = in certain instances; cited from earlier work
[5] = in certain instances; cited from earlier work; remark: listed apart in the source
[6] = system: IL-1β; assay: Effect of rilonacept on IL-1β production (Example 1, FIG. 2B); type: cell-based
Description: (§1) FIG. 2 illustrates the effect of rilonacept […] on TNF-α (FIG. 2A) and IL-1β production (FIG. 2B).
(§2) Activation of the inflammasome results in the release of preformed IL-1, which goes on to activate other targets as well as increase the production of IL-1 itself.

[7] = system: TNF-α; assay: Effect of rilonacept on TNF-α production (Example 1, FIG. 2A); type: cell-based; conditions: 6 hour time point
Description: as §1, §2

COc1cc2c(c(OC)c1OC)-c1ccc(OC)c(=O)cc1[C@@H](NC(C)=O)CC2 [Colchicine, reference compound]
Extravasation (optical absorbance at 620 nm), Av ([1]; Colchicine 0.01 mg/kg s.c.): 1.78
Extravasation (optical absorbance at 620 nm), individual rats 1-10 ([1]; Colchicine 0.01 mg/kg s.c.): 1.34 and 1.53 and 1.46 and 1.67 and 1.63 and 1.74 and 2.62 and 2.39 and 1.99 and 1.42
Exudate volume, Av ([1]; Colchicine 0.01 mg/kg s.c.): 9.8 mL
Exudate volume, individual rats 1-10 ([1]; Colchicine 0.01 mg/kg s.c.): 12 mL (2×) and 8 mL (3×) and 10 mL and 9 mL (2×) and 11 mL (2×)
Total white blood cell count, Av ([1]; Colchicine 0.01 mg/kg s.c.): 1.65 ×10^8
Total white blood cell count, individual rats 1-10 ([1]; Colchicine 0.01 mg/kg s.c.): 0.87 ×10^8 and 2.72 ×10^8 and 3.40 ×10^8 and 0.63 ×10^8 and 2.27 ×10^8 and 0.90 ×10^8 and 2.22 ×10^8 and 2.42 ×10^8 and 0.69 ×10^8 and 0.34 ×10^8
Extravasation (optical absorbance at 620 nm), Av ([1]; Colchicine 0.1 mg/kg s.c.): 1.29
Extravasation (optical absorbance at 620 nm), individual rats 1-10 ([1]; Colchicine 0.1 mg/kg s.c.): 1.25 and 1.41 and 1.31 and 1.74 and 0.68 and 1.75 and 1.72 and 0.98 and 0.83 and 1.22
Exudate volume, Av ([1]; Colchicine 0.1 mg/kg s.c.): 9.86 mL
Exudate volume, individual rats 1-10 ([1]; Colchicine 0.1 mg/kg s.c.): 9 mL (2×) and 8 mL (2×) and 10 mL and 7.8 mL and 9.8 mL and 11 mL (2×) and 15 mL
Total white blood cell count, Av ([1]; Colchicine 0.1 mg/kg s.c.): 0.78 ×10^8
Total white blood cell count, individual rats 1-10 ([1]; Colchicine 0.1 mg/kg s.c.): 0.41 ×10^8 and 0.14 ×10^8 and 2.60 ×10^8 and 1.21 ×10^8 and 0.32 ×10^8 and 1.27 ×10^8 and 1.51 ×10^8 and 0.03 ×10^8 and 0.06 ×10^8 and 0.27 ×10^8
Extravasation (optical absorbance at 620 nm), Av ([1]; Colchicine 1 mg/kg s.c.): 0.89
Extravasation (optical absorbance at 620 nm), individual rats 1-10 ([1]; Colchicine 1 mg/kg s.c.): 0.75 and 0.36 and 1.17 and 1.19 and 1.24 (2×) and 1.12 and 0.52 and 0.73 and 0.59
Exudate volume, Av ([1]; Colchicine 1 mg/kg s.c.): 6.13 mL
Exudate volume, individual rats 1-10 ([1]; Colchicine 1 mg/kg s.c.): 8 mL (2×) and 4.4 mL and 7 mL and 5.9 mL and 8.6 mL and 5.6 mL and 4.6 mL and 4 mL and 5.2 mL
Total white blood cell count, Av ([1]; Colchicine 1 mg/kg s.c.): 0.56 ×10^8
Total white blood cell count, individual rats 1-10 ([1]; Colchicine 1 mg/kg s.c.): 0.36 ×10^8 and 0.01 ×10^8 and 3.43 ×10^8 and 0.32 ×10^8 and 0.52 ×10^8 and 0.26 ×10^8 (2×) and 0.35 ×10^8 and 0.03 ×10^8 and 0.09 ×10^8
Number of white blood cells, in words ([1]; Colchicine 0.01, 0.1, 1 mg/kg): dose-dependently lowered the number of white blood cells
Extravasation, in words ([1]; Colchicine 0.01, 0.1 and 1 mg/kg): dose-dependent decrease in extravasation
Exudate volume, in words ([1]; colchicine 1 mg/kg): significantly reduced exudate volume
Exudate volume, in words ([1]; colchicine 0.01 and 0.1 mg/kg): did not significantly reduce exudate volume
Average increase in knee diameter ([2]; Colchicine 0.1 mg/kg s.c., p < 0.01 vs Vehicle): 0.71 mm
Average increase in knee diameter ([2]; Colchicine 0.3 mg/kg s.c., p < 0.001 vs Vehicle): 0.53 mm
Average increase in knee diameter ([2]; Colchicine 1 mg/kg s.c., p < 0.001 vs Vehicle): 0.41 mm
MSU-induced increase in knee diameter, in words ([2]; Colchicine 0.1, 0.3 and 1 mg/kg): dose-dependently decreased the MSU-induced increase in knee diameter

Oc1ncnc2[nH]ncc12 [allopurinol]
patients experiencing flares [3]: 28%
incidence of side effects, of all individuals treated [4]: 20%

CCCN(CCC)S(=O)(=O)c1ccc(C(=O)O)cc1 [probenecid]
individuals who fail to achieve reduction of serum uric acid levels <6 mg/dL [5]: 25-50%

rilonacept
IL-1 production [6]: does not reduce IL-1 production
TNF-α production [7]: only inhibits the production of TNF-α
